Some test systems named below: 786-0 renal; T-47D breast; BT-549 breast; HCT-15 colon; M14 melanoma; SNB-19 CNS; MOLT-4 leukemia; UO-31 renal; HOP-62 NSCLC; SN12C renal; SK-MEL-2 melanoma; MDA-MB-231 breast; HOP-92 NSCLC; SK-OV-3 ovarian; RPMI-8226 leukemia; UACC-62 melanoma; OVCAR-4 ovarian; UACC-257 melanoma; SK-MEL-5 melanoma.
Holding throughout (experiment): NCI-60 cell line screen, 48 h

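Five compound concentrations were applied to cells in 96-well plates for 48 hours; endpoints were derived by simple linear interpolation of the resulting dose-response curve. TGI marks complete inhibition of growth.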

Turning to `CCc1cn(C2CC(CO)C(CO)S2)c(=O)[nH]c1=O` (configuration not stated), the TGI with 786-0 renal, in the experiment with T-47D breast, with BT-549 breast, with HCT-15 colon, in the experiment with M14 melanoma and in the experiment on SNB-19 CNS was more than 100 µM in each case. The TGI in the experiment with MOLT-4 leukemia, in the experiment on UO-31 renal, with HOP-62 NSCLC, with SN12C renal, in the experiment with SK-MEL-2 melanoma and in the experiment with MDA-MB-231 breast was more than 100 µM throughout. Also, the TGI with HOP-92 NSCLC, with SK-OV-3 ovarian, in the experiment on RPMI-8226 leukemia, with UACC-62 melanoma, in the experiment on OVCAR-4 ovarian and with UACC-257 melanoma was more than 100 µM in each case. In the experiment on SK-MEL-5 melanoma, the TGI was more than 100 µM.
Turning to `CC(=O)O[C@H]1[C@@H](N2CCCCC2)C[C@H]2[C@@H]3CC=C4C[C@@H](N5CCCC5)CC[C@]4(C)[C@H]3CC[C@@]21C`, the TGI in the experiment on 786-0 renal is more than 100 µM; in the experiment on T-47D breast, more than 100 µM; in the experiment on BT-549 breast, more than 100 µM; in the experiment on HCT-15 colon, more than 100 µM; in the experiment with M14 melanoma, 36.4 µM; in the experiment on SNB-19 CNS it was more than 100 µM. Further, the TGI in the experiment on MOLT-4 leukemia, in the experiment on UO-31 renal, in the experiment with HOP-62 NSCLC, in the experiment on SN12C renal, in the experiment with SK-MEL-2 melanoma and with MDA-MB-231 breast was more than 100 µM throughout. For the same compound, the TGI in the experiment with HOP-92 NSCLC was more than 100 µM; in the experiment with SK-OV-3 ovarian it was more than 100 µM; with RPMI-8226 leukemia it was 92.9 µM; in the experiment with UACC-62 melanoma, more than 100 µM; in the experiment with OVCAR-4 ovarian, more than 100 µM; in the experiment with UACC-257 melanoma, 87.7 µM. In the experiment with SK-MEL-5 melanoma, the TGI was more than 100 µM.
On to `Clc1nc(NC23CC4CC(CC(C4)C2)C3)nc(NC23CC4CC(CC(C4)C2)C3)n1`, for which the TGI with 786-0 renal is more than 100 µM; with T-47D breast it was more than 89 µM; in the experiment on BT-549 breast, more than 100 µM; in the experiment with HCT-15 colon it was more than 100 µM; in the experiment on M14 melanoma it was more than 100 µM; in the experiment with SNB-19 CNS, more than 100 µM. For the same compound, the TGI in the experiment on MOLT-4 leukemia was more than 100 µM; with UO-31 renal, more than 100 µM; with HOP-62 NSCLC it was more than 100 µM; in the experiment on SN12C renal, more than 100 µM; in the experiment on SK-MEL-2 melanoma, 57.6 µM; in the experiment on MDA-MB-231 breast, more than 76.3 µM. The TGI in the experiment on HOP-92 NSCLC, in the experiment on SK-OV-3 ovarian, with RPMI-8226 leukemia, in the experiment on UACC-62 melanoma, with OVCAR-4 ovarian and in the experiment with UACC-257 melanoma was more than 100 µM each time. Also, in the experiment with SK-MEL-5 melanoma, the TGI was more than 100 µM.
For `COc1ccc(-c2c(C#N)c(N)nc(Sc3ccccc3N)c2C#N)cc1`, the TGI is 32.3 µM in the experiment on 786-0 renal; 17.5 µM with T-47D breast; more than 100 µM with BT-549 breast; more than 100 µM with HCT-15 colon; more than 100 µM in the experiment with M14 melanoma; more than 55.5 µM in the experiment with SNB-19 CNS. Moreover, the TGI in the experiment on MOLT-4 leukemia is more than 100 µM; in the experiment with UO-31 renal it was more than 100 µM; in the experiment on HOP-62 NSCLC, 32.6 µM; in the experiment with SN12C renal, more than 100 µM; in the experiment with SK-MEL-2 melanoma, 39.7 µM; with MDA-MB-231 breast, 48.2 µM. The TGI in the experiment on HOP-92 NSCLC is 27.2 µM; in the experiment with SK-OV-3 ovarian, 32.6 µM; in the experiment on RPMI-8226 leukemia, more than 100 µM; in the experiment with UACC-62 melanoma it was more than 44.5 µM; with OVCAR-4 ovarian, more than 100 µM; in the experiment with UACC-257 melanoma, more than 100 µM. In the experiment with SK-MEL-5 melanoma, this compound showed a TGI of more than 100 µM.
Consider `COc1cc(C)cc2c1C(=O)C(NC(C)=O)=CC2=O`, for which the TGI in the experiment with 786-0 renal, in the experiment with T-47D breast, with BT-549 breast, in the experiment on HCT-15 colon, in the experiment with M14 melanoma and with SNB-19 CNS was more than 100 µM in each case. The TGI is 88.7 µM in the experiment on MOLT-4 leukemia; more than 100 µM in the experiment on UO-31 renal; more than 100 µM with HOP-62 NSCLC; more than 100 µM in the experiment on SN12C renal; more than 100 µM in the experiment on SK-MEL-2 melanoma; more than 100 µM in the experiment with MDA-MB-231 breast. The TGI was more than 100 µM with HOP-92 NSCLC; more than 100 µM in the experiment with SK-OV-3 ovarian; more than 100 µM in the experiment with RPMI-8226 leukemia; more than 100 µM in the experiment on UACC-62 melanoma; 74.5 µM in the experiment with OVCAR-4 ovarian; more than 100 µM with UACC-257 melanoma. The compound further yielded a TGI in the experiment on SK-MEL-5 melanoma of more than 100 µM.
As for `CC1=CC(=O)c2ccc3c4ccccc4n(C)c3c2C1=O`, the TGI in the experiment with 786-0 renal was more than 100 µM; in the experiment with T-47D breast it was more than 100 µM; in the experiment with BT-549 breast, more than 100 µM; in the experiment with HCT-15 colon it was more than 100 µM; in the experiment with M14 melanoma it was 64.4 µM; with SNB-19 CNS, more than 100 µM. Further, the TGI is more than 72.8 µM in the experiment with MOLT-4 leukemia; more than 100 µM in the experiment on UO-31 renal; more than 100 µM with HOP-62 NSCLC; more than 100 µM in the experiment with SN12C renal; 53.1 µM with SK-MEL-2 melanoma; more than 100 µM with MDA-MB-231 breast. Moreover, the TGI in the experiment with HOP-92 NSCLC is more than 100 µM; in the experiment with SK-OV-3 ovarian, more than 100 µM; with RPMI-8226 leukemia, more than 100 µM; in the experiment on OVCAR-4 ovarian it was more than 100 µM; in the experiment on UACC-257 melanoma it was more than 100 µM; in the experiment on SK-MEL-5 melanoma, 30.5 µM.
In the case of `Cc1cc(NS(=O)(=O)c2ccc(NC(=O)c3ccc4nc5ccccc5c(Nc5ccc(S(N)(=O)=O)cc5)c4c3)cc2)no1`, the TGI was 30.8 µM in the experiment with 786-0 renal; 71.3 µM with T-47D breast; 67.5 µM with BT-549 breast; 41.3 µM in the experiment with HCT-15 colon; more than 100 µM in the experiment on M14 melanoma; more than 100 µM in the experiment on SNB-19 CNS. The TGI in the experiment with MOLT-4 leukemia is 61.8 µM; in the experiment with UO-31 renal, 43.4 µM; with HOP-62 NSCLC, more than 100 µM; in the experiment with SN12C renal, 81.5 µM; in the experiment with SK-MEL-2 melanoma, 73.3 µM; in the experiment with MDA-MB-231 breast it was 67.1 µM. Further, the TGI is 78.3 µM in the experiment on HOP-92 NSCLC; more than 100 µM with SK-OV-3 ovarian; 68 µM in the experiment on RPMI-8226 leukemia; 67.7 µM with UACC-62 melanoma; 89.9 µM in the experiment with OVCAR-4 ovarian; 57.8 µM in the experiment on UACC-257 melanoma. For the same compound, the TGI with SK-MEL-5 melanoma is 41 µM.

These data come from PubChem BioAssay (NCI).
